One compound from patent US20080119530A1, “Method for treatment and prevention of ultraviolet light induced skin pathologies” (priority 2006, published 2008) can be followed below.

The subject of this experiment is Akt. Description: Akt activity by phosphorylation on immunoblot in keratinocytes. The class given is cell-based, mouse. The following applies: sham-irradiated keratinocytes and 30 minutes post-UV. The procedure:
Immunoblotting. Flash frozen skin was ground with a mortar and pestle on dry ice, homogenized in lysis buffer containing 10 mM Tris (pH 7.4), 150 mM NaCl, 10% glycerol, 1% Triton X-100, 1 mM EDTA, Complete Protease Inhibitor Cocktail (Roche, Germany), 1 mM Na3V O4, 1.5 μM EGTA, and 10 μM NaF. Protein was quantified using the Coomassie Brilliant Blue G-250 protein assay (Bio-Rad, Hercules, Calif.). The evenness of loading and transfer was determined by staining with Ponceau S and by actin immunoblotting. […]
Cell culture. […] Transfection efficiency was quantified by determining the proportion of the cells that incorporated the fluorescent Cy3-conjugated siRNA or GFP one day post-transfection. […]

Take `COc1cc(/C=C(\C#N)C(N)=O)cc(CSc2nc3ccccc3s2)c1O` [AG825]: the “Akt activity, measured by its phosphorylation on immunoblot” value is “reduced”.
